What all share (type): in vivo
Holding throughout (settings): wettable powder applied 3 days after transplanting, judged after 25 days

Series [1] concerns Cyperus serotinus. The experiment in a line: Test Example 1: herbicidal effects, paddy-field pot test. How it is done: (§1) A paddy soil was filled in 1/10,000 are pot, and seeds of barnyardgrass (Echinochloa oryzicola Vasing.), Scirpus joncoides and annual broad-leaved weeds (Lindernia spp., Rotala indica) which are awaken from dormancy were mixed at the surface layer of 1 cm. Also, tuber of Cyperus serotinus which is germinated was planted, and further seedlings of paddy-field rice at 2.2-leaf stage were transplanted, and they were grown under the flooded condition in a greenhouse. After 3 days from transplanting, a predetermined chemical dosage of the wettable powder prepared in accordance with Preparation example 1 was diluted in water, and the solution was applied to the pot and herbicidal effects and crop injury against transplanted paddy-field rice were judged after 25 days from the treatment. Also, 3-(2-allylphenoxy)-6-chloro-4-methoxypyridazine described in Chemical Pharmaceutical Bulletin, 1972, vol. 20, No. 10, pp. 2191-2203 was used as Comparative compound. Incidentally, herbicidal effects and crop injury against transplanted paddy-field rice were judged by the following judgment standard, and “-” in the table means no test was carried out.
(§2) Judgment Standard • 0: Growth inhibition rate; 0 to 10% • 1: Growth inhibition rate; 11 to 30% • 2: Growth inhibition rate; 31 to 50% • 3: Growth inhibition rate; 51 to 70% • 4: Growth inhibition rate; 71 to 90% • 5: Growth inhibition rate; 91 to 100%.

For series [2], the system named is Scirpus joncoides. The series is described as above. As to the method: as §1, §2
Series [3] deals with annual broad-leaved weeds (Lindernia spp., Rotala indica). The description is as above. How it is done:
as §1, §2

Series [4] relates to barnyardgrass (Echinochloa oryzicola Vasing.). The description is as above. How it is done:
as §1, §2

Series [5] has as its system transplanted paddy-field rice. The experiment in a line: Test Example 1: crop injury against transplanted paddy-field rice. As to the method: as §1, §2

`Cc1ccc(C2CC2)c(Oc2nnc(Cl)cc2O)c1C` [Example 296]: the “Herbicidal effects Cyperus serotinus” value in series [1] (chemical dosage 10 g/a) and in series [1] (chemical dosage 20 g/a) was 5 (Growth inhibition rate; 91 to 100%) throughout. Besides, the “Herbicidal effects Scirpus joncoides” value in series [2] (chemical dosage 10 g/a) and in series [2] (chemical dosage 20 g/a) was 5 (Growth inhibition rate; 91 to 100%) throughout. The “Herbicidal effects Broad leaf” value in series [3] (chemical dosage 10 g/a) and in series [3] (chemical dosage 20 g/a) was 5 (Growth inhibition rate; 91 to 100%) in each case. The “Herbicidal effects Barnyard grass” value in series [4] (chemical dosage 10 g/a) was 1 (Growth inhibition rate; 11 to 30%); in series [4] (chemical dosage 20 g/a) it was 2 (Growth inhibition rate; 31 to 50%). In addition, the “Crop injury against transplanted rice” value in series [5] (chemical dosage 10 g/a) and in series [5] (chemical dosage 20 g/a) was 0 (Growth inhibition rate; 0 to 10%) throughout.

Turning to `Cc1ccc(Br)c(Oc2nnc(Cl)cc2O)c1C` [Example 294], the “Herbicidal effects Cyperus serotinus” value in series [1] (chemical dosage 10 g/a) and in series [1] (chemical dosage 20 g/a) was 5 (Growth inhibition rate; 91 to 100%) throughout. The “Herbicidal effects Scirpus joncoides” value in series [2] (chemical dosage 10 g/a) and in series [2] (chemical dosage 20 g/a) was 5 (Growth inhibition rate; 91 to 100%) in each case. For the same molecule, the “Herbicidal effects Broad leaf” value in series [3] (chemical dosage 10 g/a) and in series [3] (chemical dosage 20 g/a) was 5 (Growth inhibition rate; 91 to 100%) throughout. Moreover, the “Herbicidal effects Barnyard grass” value in series [4] (chemical dosage 10 g/a) is 1 (Growth inhibition rate; 11 to 30%); in series [4] (chemical dosage 20 g/a), 2 (Growth inhibition rate; 31 to 50%). Further, the “Crop injury against transplanted rice” value in series [5] (chemical dosage 10 g/a) and in series [5] (chemical dosage 20 g/a) was 0 (Growth inhibition rate; 0 to 10%) throughout.

Consider `Oc1cc(Cl)nnc1Oc1c(Br)cccc1C1CC1` [Example 253], for which the “Herbicidal effects Cyperus serotinus” value in series [1] (chemical dosage 10 g/a) and in series [1] (chemical dosage 20 g/a) was 5 (Growth inhibition rate; 91 to 100%) each time. Besides, the “Herbicidal effects Scirpus joncoides” value in series [2] (chemical dosage 10 g/a) and in series [2] (chemical dosage 20 g/a) was 5 (Growth inhibition rate; 91 to 100%) each time. The “Herbicidal effects Broad leaf” value in series [3] (chemical dosage 10 g/a) and in series [3] (chemical dosage 20 g/a) was 5 (Growth inhibition rate; 91 to 100%) in each case. The figures for the “Herbicidal effects Barnyard grass” value in series [4] (chemical dosage 10 g/a) and in series [4] (chemical dosage 20 g/a) were 3 (Growth inhibition rate; 51 to 70%) and 4 (Growth inhibition rate; 71 to 90%), respectively. Besides, the “Crop injury against transplanted rice” value in series [5] (chemical dosage 10 g/a) and in series [5] (chemical dosage 20 g/a) was 5 (Growth inhibition rate; 91 to 100%) in each case.

`CSCc1c(C)ccc(C)c1Oc1nnc(Cl)cc1O` [Example 303]: the “Herbicidal effects Cyperus serotinus” value in series [1] (chemical dosage 12.5 g/a) and in series [1] (chemical dosage 25 g/a) was 5 (Growth inhibition rate; 91 to 100%) each time. The “Herbicidal effects Scirpus joncoides” value in series [2] (chemical dosage 12.5 g/a) is listed as 3 (Growth inhibition rate; 51 to 70%); in series [2] (chemical dosage 25 g/a) it was 4 (Growth inhibition rate; 71 to 90%). Besides, the results for the “Herbicidal effects Broad leaf” value in series [3] (chemical dosage 12.5 g/a) and in series [3] (chemical dosage 25 g/a) were 3 (Growth inhibition rate; 51 to 70%) and 4 (Growth inhibition rate; 71 to 90%), respectively. For the same molecule, the “Herbicidal effects Barnyard grass” value in series [4] (chemical dosage 12.5 g/a) is 0 (Growth inhibition rate; 0 to 10%); in series [4] (chemical dosage 25 g/a), 1 (Growth inhibition rate; 11 to 30%). The “Crop injury against transplanted rice” value in series [5] (chemical dosage 12.5 g/a) and in series [5] (chemical dosage 25 g/a) was 0 (Growth inhibition rate; 0 to 10%) in each case.

`Oc1cc(Cl)nnc1Oc1c(F)cccc1Cl` [Example 232]: the entries for the “Herbicidal effects Cyperus serotinus” value in series [1] (chemical dosage 10 g/a) and in series [1] (chemical dosage 20 g/a) were 4 (Growth inhibition rate; 71 to 90%) and 5 (Growth inhibition rate; 91 to 100%), respectively. In addition, the “Herbicidal effects Scirpus joncoides” value was 3 (Growth inhibition rate; 51 to 70%) in series [2] (chemical dosage 10 g/a) and 4 (Growth inhibition rate; 71 to 90%) in series [2] (chemical dosage 20 g/a). Further, the “Herbicidal effects Broad leaf” value in series [3] (chemical dosage 10 g/a) and in series [3] (chemical dosage 20 g/a) was 5 (Growth inhibition rate; 91 to 100%) each time. The “Herbicidal effects Barnyard grass” value in series [4] (chemical dosage 10 g/a) and in series [4] (chemical dosage 20 g/a) was 4 (Growth inhibition rate; 71 to 90%) each time. Further, the “Crop injury against transplanted rice” value in series [5] (chemical dosage 10 g/a) and in series [5] (chemical dosage 20 g/a) was 0 (Growth inhibition rate; 0 to 10%) throughout.

In the case of `Cc1ccc2c(c1Oc1nnc(Cl)cc1O)CCC2` [Example 305], in series [1] (chemical dosage 10 g/a), the “Herbicidal effects Cyperus serotinus” value is on record as 5 (Growth inhibition rate; 91 to 100%). Also, the “Herbicidal effects Scirpus joncoides” value in series [2] (chemical dosage 10 g/a) is 5 (Growth inhibition rate; 91 to 100%). For the same molecule, the “Herbicidal effects Broad leaf” value in series [3] (chemical dosage 10 g/a) is 5 (Growth inhibition rate; 91 to 100%). Further, in series [4] (chemical dosage 10 g/a), the “Herbicidal effects Barnyard grass” value is reported as 1 (Growth inhibition rate; 11 to 30%). In addition, the “Crop injury against transplanted rice” value in series [5] (chemical dosage 10 g/a) is reported as 0 (Growth inhibition rate; 0 to 10%).

With `CC(C)c1cccc(Br)c1Oc1nnc(Cl)cc1O` [Example 19], the “Herbicidal effects Cyperus serotinus” value in series [1] (chemical dosage 12.5 g/a) and in series [1] (chemical dosage 25 g/a) was 5 (Growth inhibition rate; 91 to 100%) each time. Besides, the “Herbicidal effects Scirpus joncoides” value in series [2] (chemical dosage 12.5 g/a) and in series [2] (chemical dosage 25 g/a) was 4 (Growth inhibition rate; 71 to 90%) throughout. Moreover, the “Herbicidal effects Broad leaf” value in series [3] (chemical dosage 12.5 g/a) and in series [3] (chemical dosage 25 g/a) was 5 (Growth inhibition rate; 91 to 100%) each time. In addition, the results for the “Herbicidal effects Barnyard grass” value in series [4] (chemical dosage 12.5 g/a) and in series [4] (chemical dosage 25 g/a) were 0 (Growth inhibition rate; 0 to 10%) and 1 (Growth inhibition rate; 11 to 30%), respectively. Moreover, the “Crop injury against transplanted rice” value in series [5] (chemical dosage 12.5 g/a) and in series [5] (chemical dosage 25 g/a) was 1 (Growth inhibition rate; 11 to 30%) throughout.

As to `CS(=O)(=O)Oc1cc(Cl)nnc1Oc1ccccc1C1CC1` [Example 357], the “Herbicidal effects Cyperus serotinus” value in series [1] (chemical dosage 10 g/a) and in series [1] (chemical dosage 20 g/a) was 5 (Growth inhibition rate; 91 to 100%) each time. Moreover, the “Herbicidal effects Scirpus joncoides” value in series [2] (chemical dosage 10 g/a) and in series [2] (chemical dosage 20 g/a) was 5 (Growth inhibition rate; 91 to 100%) each time. Besides, the “Herbicidal effects Broad leaf” value in series [3] (chemical dosage 10 g/a) and in series [3] (chemical dosage 20 g/a) was 5 (Growth inhibition rate; 91 to 100%) in each case. Also, the “Herbicidal effects Barnyard grass” value in series [4] (chemical dosage 10 g/a) was 2 (Growth inhibition rate; 31 to 50%); in series [4] (chemical dosage 20 g/a), 3 (Growth inhibition rate; 51 to 70%). Also, the “Crop injury against transplanted rice” value in series [5] (chemical dosage 10 g/a) and in series [5] (chemical dosage 20 g/a) was 0 (Growth inhibition rate; 0 to 10%) each time.

As to `Cc1cc(C)c(C)c(Oc2nnc(Cl)cc2O)c1C` [Example 320], the “Herbicidal effects Cyperus serotinus” value in series [1] (chemical dosage 12.5 g/a) and in series [1] (chemical dosage 25 g/a) was 5 (Growth inhibition rate; 91 to 100%) in each case. Also, the “Herbicidal effects Scirpus joncoides” value in series [2] (chemical dosage 12.5 g/a) and in series [2] (chemical dosage 25 g/a) was 5 (Growth inhibition rate; 91 to 100%) in each case. Besides, the “Herbicidal effects Broad leaf” value in series [3] (chemical dosage 12.5 g/a) and in series [3] (chemical dosage 25 g/a) was 5 (Growth inhibition rate; 91 to 100%) throughout. In addition, the “Herbicidal effects Barnyard grass” value in series [4] (chemical dosage 12.5 g/a) is 1 (Growth inhibition rate; 11 to 30%); in series [4] (chemical dosage 25 g/a) it was 2 (Growth inhibition rate; 31 to 50%). Moreover, the “Crop injury against transplanted rice” value in series [5] (chemical dosage 12.5 g/a) and in series [5] (chemical dosage 25 g/a) was 0 (Growth inhibition rate; 0 to 10%) each time.

Consider `Oc1cc(Cl)nnc1Oc1c(C2CC2)cccc1C1CC1` [Example 275], for which the “Herbicidal effects Cyperus serotinus” value in series [1] (chemical dosage 10 g/a) and in series [1] (chemical dosage 20 g/a) was 5 (Growth inhibition rate; 91 to 100%) throughout. Further, the “Herbicidal effects Scirpus joncoides” value in series [2] (chemical dosage 10 g/a) and in series [2] (chemical dosage 20 g/a) was 5 (Growth inhibition rate; 91 to 100%) each time. Moreover, the “Herbicidal effects Broad leaf” value in series [3] (chemical dosage 10 g/a) and in series [3] (chemical dosage 20 g/a) was 5 (Growth inhibition rate; 91 to 100%) each time. Besides, the “Herbicidal effects Barnyard grass” value in series [4] (chemical dosage 10 g/a) and in series [4] (chemical dosage 20 g/a) was 4 (Growth inhibition rate; 71 to 90%) each time. Besides, the “Crop injury against transplanted rice” value in series [5] (chemical dosage 10 g/a) was 1 (Growth inhibition rate; 11 to 30%); in series [5] (chemical dosage 20 g/a) it was 3 (Growth inhibition rate; 51 to 70%).

For `Cc1cccc(C)c1Oc1nnc(Cl)cc1O` [Example 21], the “Herbicidal effects Cyperus serotinus” value in series [1] (chemical dosage 10 g/a) is on record as 5 (Growth inhibition rate; 91 to 100%). Further, in series [2] (chemical dosage 10 g/a), the “Herbicidal effects Scirpus joncoides” value is listed as 5 (Growth inhibition rate; 91 to 100%). The “Herbicidal effects Broad leaf” value in series [3] (chemical dosage 10 g/a) is listed as 5 (Growth inhibition rate; 91 to 100%). Also, in series [4] (chemical dosage 10 g/a), the “Herbicidal effects Barnyard grass” value is 2 (Growth inhibition rate; 31 to 50%). Also, in series [5] (chemical dosage 10 g/a), the “Crop injury against transplanted rice” value was 0 (Growth inhibition rate; 0 to 10%).

The record behind these values is patent US7964531B2, “3-phenoxy-4-pyridazinol derivatives and herbicidal composition containing the same” (Mitsui Chemicals Agro, Inc., priority 2001, dated 2011).
